Each compound was assayed against T1, human JAK2 (Homo sapiens, UniProt O60674) (assay: In vitro JAK kinase assay (HTRF, phosphorylation of biotinylated peptide)). Conditions: catalytic domain a.a. 828-1132, 30 μM ATP, 500 nM peptide, room temperature 1 hr; read-out: JAK-2 IC50.
T1 construct: JAK2 (a.a. 828-1132); His tag (N); made in house; host or cells: insect cells (baculovirus)
Type: biochemical
Summary of the method: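 IC50 from HTRF detection (Eu-Py20 antibody, SA-APC) of biotinylated-peptide phosphorylation (500 nM), run 1 h at RT. Enzyme: N-His human JAK2 kinase domain a.a. 828-1132 from insect cells; ATP 30 μM; buffer 50 mM Tris pH 7.8 with NaCl, DTT, BSA.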

T1 sequence (O60674 828-1132): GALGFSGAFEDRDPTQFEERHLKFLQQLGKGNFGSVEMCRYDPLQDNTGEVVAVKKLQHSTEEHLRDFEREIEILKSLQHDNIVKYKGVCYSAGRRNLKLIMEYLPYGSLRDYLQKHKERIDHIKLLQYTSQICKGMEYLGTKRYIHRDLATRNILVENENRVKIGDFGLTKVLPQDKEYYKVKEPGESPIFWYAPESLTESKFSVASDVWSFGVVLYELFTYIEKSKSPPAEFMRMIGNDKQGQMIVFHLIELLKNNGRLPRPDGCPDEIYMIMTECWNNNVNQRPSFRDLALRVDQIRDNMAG

IC50, < 100 nM:
COc1cnc(Nc2cccc(C(=O)NCc3cc(C)on3)c2)nc1-c1cnn(C(CC#N)C2CC2)c1 (racemic) [Example 333, 3-({4-[1-(2-cyano-1-cyclopropylethyl)-1H-pyrazol-4-yl]-5-methoxypyrimidin-2-yl}amino)-N-[(5-methylisoxazol-3-yl)methyl]benzamide]
COc1cnc(Nc2cccc(C(=O)N3CCC3)c2)nc1-c1cnn(C(CC#N)C2CC2)c1 (racemic) [Example 334, 3-[4-(2-{[3-(azetidin-1-ylcarbonyl)phenyl]amino}-5-methoxypyrimidin-4-yl)-1H-pyrazol-1-yl]-3-cyclopropylpropanenitrile]
COc1cnc(Nc2cccc(N3CCCS3(=O)=O)c2)nc1-c1cnn(C(CC#N)C2CC2)c1 (racemic) [Example 346, 3-cyclopropyl-3-[4-(2-{[3-(1,1-dioxidoisothiazolidin-2-yl)phenyl]amino}-5-methoxypyrimidin-4-yl)-1H-pyrazol-1-yl]propanenitrile]
COc1cnc(Nc2cccnc2)nc1-c1cnn(C(CC#N)CC2CCN(C(=O)c3ccc(F)cc3F)CC2)c1 (racemic) [Example 347, 4-[1-(2,4-difluorobenzoyl)piperidin-4-yl]-3-{4-[5-methoxy-2-(pyridin-3-ylamino)pyrimidin-4-yl]-1H-pyrazol-1-yl}butanenitrile]
Cc1cc(OC2CCC(CC#N)(n3cc(-c4ccnc(Nc5ccc(N6CCOCC6)cc5)n4)cn3)CC2)no1 (single isomer, unassigned) [Example 212, 2-(4-(5-methylisoxazol-3-yloxy)-1-(4-(2-(4-morpholinophenylamino)pyrimidin-4-yl)-1H-pyrazol-1-yl)cyclohexyl)acetonitrile]
CC1(C)NC(=O)O[C@]12CCN(C(=O)c1ccc(Nc3nccc(-c4cnn(C(CC#N)C5CCCC5)c4)n3)cc1)C2 (single isomer, unassigned) [Example 219, 3-cyclopentyl-3-(4-(2-(4-((S*)-4,4-dimethyl-2-oxo-1-oxa-3,7-diazaspiro[4.4]nonane-7-carbonyl)phenylamino)pyrimidin-4-yl)-1H-pyrazol-1-yl)propanenitrile]
Cc1cc(OC2CCC(CC#N)(n3cc(-c4ccnc(Nc5ccc(N6CCOCC6=O)cc5)n4)cn3)CC2)no1 (single isomer, unassigned) [Example 244, 2-(4-(5-methylisoxazol-3-yloxy)-1-(4-(2-(4-(3-oxomorpholino)phenylamino)pyrimidin-4-yl)-1H-pyrazol-1-yl)cyclohexyl)acetonitrile]
Cc1cc(OC2CCC(CC#N)(n3cc(-c4ccnc(Nc5ccc(N6CCCCC6=O)cc5)n4)cn3)CC2)no1 (single isomer, unassigned) [Example 245, 2-(4-(5-methylisoxazol-3-yloxy)-1-(4-(2-(4-(2-oxopiperidin-1-yl)phenylamino)pyrimidin-4-yl)-1H-pyrazol-1-yl)cyclohexyl)acetonitrile]
Cc1cc(OC2CCC(CC#N)(n3cc(-c4ccnc(Nc5ccc(-n6cccn6)cc5)n4)cn3)CC2)no1 (single isomer, unassigned) [Example 246, 2-(1-(4-(2-(4-(1H-pyrazol-1-yl)phenylamino)pyrimidin-4-yl)-1H-pyrazol-1-yl)-4-(5-methylisoxazol-3-yloxy)cyclohexyl)acetonitrile]
Cc1cc(OC2CCC(CC#N)(n3cc(-c4ccnc(Nc5cccc(-c6cnco6)c5)n4)cn3)CC2)no1 (single isomer, unassigned) [Example 247, 2-(4-(5-methylisoxazol-3-yloxy)-1-(4-(2-(3-(oxazol-5-yl)phenylamino)pyrimidin-4-yl)-1H-pyrazol-1-yl)cyclohexyl)acetonitrile]
N#CCC1(n2cc(-c3ccnc(Nc4ccc(N5CCOCC5)cc4)n3)cn2)CC(C#N)C1 (single isomer, unassigned) [Example 248, 3-(cyanomethyl)-3-(4-(2-(4-morpholinophenylamino)pyrimidin-4-yl)-1H-pyrazol-1-yl)cyclobutanecarbonitrile]
N#CCC1(n2cc(-c3ccnc(Nc4ccc(C(=O)N5CCOCC5)cc4)n3)cn2)CC(C#N)C1 (single isomer, unassigned) [Example 287, 3-(cyanomethyl)-3-(4-(2-(4-(morpholine-4-carbonyl)phenylamino)pyrimidin-4-yl)-1H-pyrazol-1-yl)cyclobutanecarbonitrile]
N#CCC1(n2cc(-c3ccnc(Nc4ccc(C(=O)N5CCCC5)cc4)n3)cn2)CC(C#N)C1 (single isomer, unassigned) [Example 288, 3-(cyanomethyl)-3-(4-(2-(4-(pyrrolidine-1-carbonyl)phenylamino)pyrimidin-4-yl)-1H-pyrazol-1-yl)cyclobutanecarbonitrile]
N#CCC1(n2cc(-c3ccnc(Nc4ccc(C(=O)NC5CCOCC5)cc4)n3)cn2)CC(C#N)C1 (single isomer, unassigned) [Example 289, 4-(4-(1-(3-cyano-1-(cyanomethyl)cyclobutyl)-1H-pyrazol-4-yl)pyrimidin-2-ylamino)-N-(tetrahydro-2H-pyran-4-yl)benzamide]
N#CCC1(n2cc(-c3ccnc(Nc4ccc(C(=O)N5CC[C@@H](O)C5)cc4)n3)cn2)CC(C#N)C1 (single isomer, unassigned) [Example 290]
Cc1cc(CNC(=O)c2ccc(Nc3nccc(-c4cnn(C5(CC#N)CC(C#N)C5)c4)n3)cc2)no1 (single isomer, unassigned) [Example 291, 4-(4-(1-(3-cyano-1-(cyanomethyl)cyclobutyl)-1H-pyrazol-4-yl)pyrimidin-2-ylamino)-N-((5-methylisoxazol-3-yl)methyl)benzamide]
N#CCC1(n2cc(-c3ccnc(Nc4ccc(C(=O)N5CCC5)cc4)n3)cn2)CC(C#N)C1 (single isomer, unassigned) [Example 292, 3-(4-(2-(4-(azetidine-1-carbonyl)phenylamino)pyrimidin-4-yl)-1H-pyrazol-1-yl)-3-(cyanomethyl)cyclobutanecarbonitrile]
CN1CCN(C(=O)c2ccc(Nc3nccc(-c4cnn(C5(CC#N)CC(C#N)C5)c4)n3)cc2)CC1 (single isomer, unassigned) [Example 293, 3-(cyanomethyl)-3-(4-(2-(4-(4-methylpiperazine-1-carbonyl)phenylamino)pyrimidin-4-yl)-1H-pyrazol-1-yl)cyclobutanecarbonitrile]
N#CCC1(n2cc(-c3ccnc(Nc4ccc(C(=O)N5CC[C@H](F)C5)cc4)n3)cn2)CC(C#N)C1 (single isomer, unassigned) [Example 294]
COC1CCN(C(=O)c2ccc(Nc3nccc(-c4cnn(C5(CC#N)CC(C#N)C5)c4)n3)cc2)CC1 (single isomer, unassigned) [Example 295, 3-(cyanomethyl)-3-(4-(2-(4-(4-methoxypiperidine-1-carbonyl)phenylamino)pyrimidin-4-yl)-1H-pyrazol-1-yl)cyclobutanecarbonitrile]
CO[C@H]1CCN(C(=O)c2ccc(Nc3nccc(-c4cnn(C5(CC#N)CC(C#N)C5)c4)n3)cc2)C1 (single isomer, unassigned) [Example 296]
CC(=O)N1CCN(C(=O)c2ccc(Nc3nccc(-c4cnn(C5(CC#N)CC(C#N)C5)c4)n3)cc2)CC1 (single isomer, unassigned) [Example 298, 3-(4-(2-(4-(4-acetylpiperazine-1-carbonyl)phenylamino)pyrimidin-4-yl)-1H-pyrazol-1-yl)-3-(cyanomethyl)cyclobutanecarbonitrile]
N#CCC1(n2cc(-c3ccnc(Nc4ccc(C(=O)N5CCC(O)CC5)cc4)n3)cn2)CC(C#N)C1 (single isomer, unassigned) [Example 301, 3-(cyanomethyl)-3-(4-(2-(4-(4-hydroxypiperidine-1-carbonyl)phenylamino)pyrimidin-4-yl)-1H-pyrazol-1-yl)cyclobutanecarbonitrile]
N#CCC1(n2cc(-c3ccnc(Nc4ccc(OCCN5CCCC5)cc4)n3)cn2)CC(C#N)C1 (single isomer, unassigned) [Example 307, 3-(cyanomethyl)-3-[4-(2-{[4-(2-pyrrolidin-1-ylethoxy)phenyl]amino}pyrimidin-4-yl)-1H-pyrazol-1-yl]cyclobutanecarbonitrile]
N#CCC1(n2cc(-c3ccnc(Nc4ccc(N5CCCCC5=O)cc4)n3)cn2)CC(C#N)C1 (single isomer, unassigned) [Example 336, 3-(cyanomethyl)-3-[4-(2-{[4-(2-oxopiperidin-1-yl)phenyl]amino}pyrimidin-4-yl)-1H-pyrazol-1-yl]cyclobutanecarbonitrile]
N#CCC1(n2cc(-c3ccnc(Nc4ccc(N5CCCOC5=O)cc4)n3)cn2)CC(C#N)C1 (single isomer, unassigned) [Example 337, 3-(cyanomethyl)-3-[4-(2-{[4-(2-oxo-1,3-oxazinan-3-yl)phenyl]amino}pyrimidin-4-yl)-1H-pyrazol-1-yl]cyclobutanecarbonitrile]
N#CCC1(n2cc(-c3ccnc(Nc4ccc(N5CCOCC5=O)cc4)n3)cn2)CC(C#N)C1 (single isomer, unassigned) [Example 338, 3-(cyanomethyl)-3-[4-(2-{[4-(3-oxomorpholin-4-yl)phenyl]amino}pyrimidin-4-yl)-1H-pyrazol-1-yl]cyclobutanecarbonitrile]
N#CCC1(n2cc(-c3ccnc(Nc4ccc(N5CCOC5=O)cc4)n3)cn2)CC(C#N)C1 (single isomer, unassigned) [Example 339, 3-(cyanomethyl)-3-[4-(2-{[4-(2-oxo-1,3-oxazolidin-3-yl)phenyl]amino}pyrimidin-4-yl)-1H-pyrazol-1-yl]cyclobutanecarbonitrile]

Source: patent publication US8309718B2, “4-pyrazolyl-N-arylpyrimidin-2-amines and 4-pyrazolyl-N-heteroarylpyrimidin-2-amines as janus kinase inhibitors” (Incyte Corporation, priority 2007, dated 2012)
